Measured values reported in patent US5059602A, “4-substituted dihydropyrido(4,3-d)pyrimidines as analgesics and topical antiinflammatory agents for the treatment of skin disorders” (Hoechst-Roussel Pharmaceuticals Inc., priority 1990, dated 1991).
Counter-ions that a name gives are not always drawn. Like-named read-outs stand apart in the source and are kept apart here.

Assays:
[1] = system: naja naja (snake venom) phospholipase A2 -induced paw edema; assay: Phospholipase A2-induced Paw Edema (PIPE); type: in vivo, male Wistar rats; conditions: 0.1M; rat hindpaw, subplantar injection with PLA2 (3 units/paw), 2 hours
Procedure: Phospholipase A2 -induced Paw Edema (PIPE)
The ability of compounds to prevent naja naja (snake venom) phospholipase A2 -induced paw edema in male Wistar rats (100-125 g) was measured. PLA2 (3 units/paw) alone or with 0.1M of the test compound was injected in the subplantar region of the rat left hindpaw. Immediately subsequent to the injection and at two hours post administration the paw was immersed in a mercury bath, and paw displacement was measured on a recorder via a transducer. […] See Giessler, A. J. et al., Agents and Actions, Vol. 10, Trends in Inflammation Research (1981), p. 195.

[2] = system: ear edema induced by topical application of TPA (phorbol 12-myristate acetate); assay: TPA-Induced Ear Edema (TPAEE); type: in vivo, Female Swiss Webster mice; conditions: for change in vivo at 10 µg/ear: 5 h, read-out: TPAEE
Procedure: TPA-Induced Ear Edema (TPAEE)
The purpose of this assay was to determine the ability of a topically-applied compound to prevent ear edema induced by topical application of TPA (phorbol 12-myristate acetate). Female Swiss Webster mice topically received TPA (10 μg/ear) on the right ear and vehicle on the left ear. The test compound (10 μg/ear) was applied to both ears. After five hours, the animals were sacrificed and an ear punch (4 mm) was taken from each ear. The difference in right and left ear punch weights for each animal was determined to assess activity. […] See Young, J. M. et al., J. Invest. Dermatol., 80 (1983), pp. 48-52.

[3] = system: 2-phenyl-1,4-benzoquinone-induced writhing; assay: 2-phenyl-1,4-benzoquinone-induced writhing test (PQW); type: in vivo, mice; conditions: Mus musculus, sc, read-out: PQW % Inhibition of writhing
[4] = system: mouse ear edema induced by topical application of arachidonic acid; assay: Arachidonic Acid-Induced Ear Edema (AAEE); type: in vivo, Female Swiss Webster mice; conditions: for AAEE: 1.0 mg (per ear), mouse
Procedure: Arachidonic Acid-Induced Ear Edema (AAEE)
The purpose of this assay was to determine the ability of a topically-applied compound to prevent mouse ear edema induced by topical application of arachidonic acid. Female Swiss Webster mice topically received vehicle or test compound (1.0 mg/ear) on both ears (10 μl on outer and inner ears). After 30 minutes, the right ear of all groups received arachidonic acid (4 mg/ear) and the left ear received vehicle alone. After an additional 1 hour, the mice were sacrificed and an ear punch (4 mm) was taken from each ear. The difference in right and left ear punch weights for each animal was determined to assess activity. […] See Young, J. M. et al., Invest. Dermatol., 80, (1983), pp 48-52.

[5] = 10 μg (per ear), mouse, five hours

Row | Structure (SMILES) | PIPE (difference in edema vs. control) [1] | change in vivo at 10 µg/ear [2, 5] | further results
1 | Cl.Cl.Nc1ccncc1CNCc1ccccc1 [3-[(Phenylmethylamino)methyl]-4-pyridinamine dihydrochloride] | -51% | – | –
2 | Nc1ccncc1C(=NO)C1CCCCC1 [(4-Amino-3-pyridinyl)cyclohexylmethanone oxime hydrochloride] | – | -34% | –
3 | CC(=O)c1cnccc1NC(=O)C(C)(C)C [N-(3-Acetyl-4-pyridinyl)-2,2-dimethylpropanamide] | – | – | inhibition in vivo at 20 mg/kg ([3]; 20 mg/kg, s.c.): 34%
4 | CC(NCc1ccccc1)c1cnccc1NC(=O)C(C)(C)C.Cl.Cl (centres unmarked) [N-[3-[1-(Phenylmethylamino)ethyl]-4-pyridinyl]-2,2-dimethylpropionamide dihydrochloride] | – | – | AAEE [4]: -44%
5 | C[C@]12CCC(=O)C=C1CC[C@@H]1[C@@H]2[C@@H](O)C[C@@]2(C)[C@H]1CC[C@]2(O)C(=O)CO [hydrocortisone, reference compound] | – | – | ED50 ([2]; standard, TPAEE): 47 μg/ear
6 | C1=NC(C2CCCCC2)c2cnccc2N1.Cl.Cl (centres unmarked) [4-Cyclohexyl-1,4-dihydropyrido[4,3-d]pyrimidine dihydrochloride] | -44% | – | –
7 | CC(NCc1ccccc1)c1cnccc1N (stereo not drawn) [4-Amino-α-methyl-N-(phenylmethyl)-3-pyridinemethanamine] | – | -45% | inhibition in vivo at 20 mg/kg ([3]; 20 mg/kg, s.c.): 58%
8 | Nc1ccncc1C(N)c1ccccc1 (centres unmarked) [(4-Amino-3-pyridinyl)benzenemethanamine dihydrochloride] | -66% | – | –
9 | CC(O)c1cnccc1NC(=O)C(C)(C)C (stereo not drawn) [α-Methyl-α-[4-(2,2-dimethylpropionamido)-3-pyridinyl]-methanol] | – | -46% | –
10 | Nc1ccncc1C(=O)C1CCCCC1 [(4-Amino-3-pyridinyl)cyclohexylmethanone hydrochloride] | – | -53% | –
11 | Nc1ccncc1C(=NO)c1ccccc1 [(4-Amino-3-pyridinyl)phenylmethanone oxime hydrochloride] | – | -32% | –
12 | CC(C)(C)C(=O)Nc1ccncc1C(O)C1CCCCC1 (stereo not drawn) [α-Cyclohexyl-α-[4-(2,2-dimethylpropionamido)-3-pyridinyl]-methanol] | -35% | -55% | AAEE [4]: -52%; inhibition in vivo at 20 mg/kg ([3]; 20 mg/kg, s.c.): 32%
13 | CCCCNCc1cnccc1NC(=O)C(C)(C)C.Cl.Cl [N-[3-[(Butylamino)methyl]-4-pyridinyl]-2,2-dimethylpropanamide dihydrochloride] | – | – | AAEE [4]: -45%
14 | CC1c2cnccc2N=CN1Cc1ccccc1 (centres unmarked) [3,4-Dihydro-4-methyl-3-phenylmethylpyrido[4,3-d]pyrimidine dihydrochloride] | – | – | change in vivo at 10 µg/ear ([2]; Mus musculus): -55%; inhibition in vivo at 20 mg/kg [3]: 85%
15 | COc1ccc2c(c1)c(CC(=O)O)c(C)n2C(=O)c1ccc(Cl)cc1 [indomethacin, reference compound] | – | – | ED50 ([4]; standard, AAEE): 1.5 mg/ear
16 | Cl.Cl.Nc1ccncc1C(N)C1CCCCC1 (centres unmarked) [(4-Amino-3-pyridinyl)cyclohexylmethanamine dihydrochloride] | -68% | -36% | AAEE [4]: -28%
